inhibition, IC50 and Activity data for one compound are collected here from ChEMBL document CHEMBL6092179, “Discovery of CLKs inhibitors for the treatment of non-small cell lung cancer” (Eur J Med Chem, 2024).

Experiment [1] has as its target Dual specificity protein kinase CLK1 (Homo sapiens, UniProt P49759). Put plainly: Inhibition of CLK in human NCI-H1299 cells assessed as downregulation of SRSF5 phosphorylation at 0.1 to 1 uM incubated for 1 hr by Western blotting analysis. The note with it: dose 0.1-1 µM. It is filed as cell-based.
Experiment [2] deals with Homeodomain-interacting protein kinase 1 (Homo sapiens) (UniProt Q86Z02). Put plainly: Inhibition of HIPK1 (unknown origin) at 100 nM by ADP-Glo assay relative to control. For orientation: ADP-Glo first removes unused ATP, then detects ADP through luciferase.
Chain of Homeodomain-interacting protein kinase 1 (Homo sapiens) (Q86Z02 whole entry, looked up): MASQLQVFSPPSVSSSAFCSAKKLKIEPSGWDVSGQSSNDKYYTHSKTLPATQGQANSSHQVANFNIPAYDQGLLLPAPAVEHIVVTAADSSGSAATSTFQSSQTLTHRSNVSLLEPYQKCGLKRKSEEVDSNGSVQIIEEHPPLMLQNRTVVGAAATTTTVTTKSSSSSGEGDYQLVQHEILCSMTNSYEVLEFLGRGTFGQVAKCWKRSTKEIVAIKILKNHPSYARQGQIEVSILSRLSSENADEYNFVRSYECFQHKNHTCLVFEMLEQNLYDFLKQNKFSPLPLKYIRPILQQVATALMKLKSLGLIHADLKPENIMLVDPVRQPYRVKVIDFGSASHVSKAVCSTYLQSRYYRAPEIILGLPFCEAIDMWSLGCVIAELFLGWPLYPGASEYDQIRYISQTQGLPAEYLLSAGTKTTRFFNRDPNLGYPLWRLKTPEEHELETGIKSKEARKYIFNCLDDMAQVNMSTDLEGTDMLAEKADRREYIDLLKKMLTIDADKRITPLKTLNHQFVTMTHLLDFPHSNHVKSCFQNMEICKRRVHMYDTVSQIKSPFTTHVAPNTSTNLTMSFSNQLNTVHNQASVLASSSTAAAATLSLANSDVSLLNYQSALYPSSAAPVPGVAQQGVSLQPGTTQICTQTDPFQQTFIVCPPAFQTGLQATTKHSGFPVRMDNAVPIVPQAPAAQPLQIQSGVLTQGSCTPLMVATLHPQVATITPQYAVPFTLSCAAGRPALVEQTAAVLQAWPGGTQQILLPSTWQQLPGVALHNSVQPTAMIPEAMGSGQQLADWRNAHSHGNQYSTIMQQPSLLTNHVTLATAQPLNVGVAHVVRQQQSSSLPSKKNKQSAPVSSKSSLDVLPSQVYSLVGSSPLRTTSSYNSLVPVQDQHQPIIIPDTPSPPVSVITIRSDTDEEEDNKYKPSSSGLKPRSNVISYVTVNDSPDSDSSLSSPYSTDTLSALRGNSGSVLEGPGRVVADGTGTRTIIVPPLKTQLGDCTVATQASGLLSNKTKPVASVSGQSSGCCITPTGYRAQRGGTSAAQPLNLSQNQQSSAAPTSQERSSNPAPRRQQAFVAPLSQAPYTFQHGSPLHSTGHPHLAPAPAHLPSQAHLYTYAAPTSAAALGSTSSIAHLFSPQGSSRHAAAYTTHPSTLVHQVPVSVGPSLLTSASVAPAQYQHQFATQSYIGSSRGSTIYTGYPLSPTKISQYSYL
The target of experiment [3] is Dual specificity protein kinase CLK4 (Homo sapiens, UniProt Q9HAZ1). Put plainly: Inhibition of CLK4 (unknown origin) by ADP-Glo assay.
Chain of Dual specificity protein kinase CLK4 (Q9HAZ1 whole entry): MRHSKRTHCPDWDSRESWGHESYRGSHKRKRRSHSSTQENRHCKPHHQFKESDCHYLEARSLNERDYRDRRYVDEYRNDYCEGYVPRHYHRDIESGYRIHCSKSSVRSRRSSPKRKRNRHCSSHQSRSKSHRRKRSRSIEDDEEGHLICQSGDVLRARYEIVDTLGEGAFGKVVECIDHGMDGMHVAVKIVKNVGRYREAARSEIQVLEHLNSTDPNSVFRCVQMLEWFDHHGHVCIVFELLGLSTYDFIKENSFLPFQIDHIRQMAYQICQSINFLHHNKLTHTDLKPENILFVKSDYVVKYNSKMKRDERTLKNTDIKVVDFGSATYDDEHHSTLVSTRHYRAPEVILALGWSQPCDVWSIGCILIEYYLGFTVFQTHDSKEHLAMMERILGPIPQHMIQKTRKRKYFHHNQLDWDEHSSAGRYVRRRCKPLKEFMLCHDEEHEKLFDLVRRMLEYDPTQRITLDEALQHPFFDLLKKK
For experiment [4], the system named is NCI-H1299. Put plainly: Induction of apoptosis in human NCI-H1299 cells assessed as late apoptotic cells at 2.5 uM incubated for 24 hrs by annexin V-FITC/PI staining based flow cytometric analysis (reference value: 2.23 %). It is filed as functional. (In general: A flow cytometer gives signals particle by particle.)
The test system of experiment [5] is NCI-H1299. Put plainly: Induction of apoptosis in human NCI-H1299 cells assessed as early apoptotic cells at 0.5 uM incubated for 24 hrs by annexin V-FITC/PI staining based flow cytometric analysis (reference value: 0.49 %). It is filed as functional.
In experiment [6] the test system is NCI-H1299. Put plainly: Induction of apoptosis in human NCI-H1299 cells assessed as necrotic cells at 1 uM incubated for 24 hrs by annexin V-FITC/PI staining based flow cytometric analysis (reference value: 2.28 %). It is filed as functional.
Experiment [7] relates to NCI-H1299. Put plainly: Induction of apoptosis in human NCI-H1299 cells assessed as early apoptotic cells at 0.25 uM incubated for 24 hrs by annexin V-FITC/PI staining based flow cytometric analysis (reference value: 0.49 %). It is filed as functional.
Experiment [8] deals with NCI-H1299. Put plainly: Inhibition of AKT phosphorylation in human NCI-H1299 cells at 0.1 to 1 uM incubated for 12 hrs by Western blotting analysis. It is filed as cell-based. The following applies: dose 0.1-1 µM. (In western blotting, separated proteins are transferred to a membrane and probed.)
Experiment [9] deals with NCI-H1299. Put plainly: Induction of apoptosis in human NCI-H1299 cells assessed as early apoptotic cells at 1 uM incubated for 24 hrs by annexin V-FITC/PI staining based flow cytometric analysis (reference value: 0.49 %). It is filed as functional.
Experiment [10] has as its target Dual specificity protein kinase CLK3 (Homo sapiens, UniProt P49761). Put plainly: Inhibition of CLK3 (unknown origin) by ADP-Glo assay.
Experiment [11] deals with NCI-H1299. Put plainly: Induction of apoptosis in human NCI-H1299 cells assessed as early apoptotic cells at 2.5 uM incubated for 24 hrs by annexin V-FITC/PI staining based flow cytometric analysis (reference value: 0.49 %). It is filed as functional.
Experiment [12] has as its system Osimertinib-resistant NCI-H1975 cell. Put plainly: cells. The following applies: Homo sapiens, 48 h.
Description: Antiproliferative activity against human Osimertinib-resistant NCI-H1975 cell assessed as inhibition of cell growth incubated for 48 hrs by MTT assay
Experiment [13] concerns NCI-H1299. Put plainly: Induction of apoptosis in human NCI-H1299 cells assessed as late apoptotic cells at 1 uM incubated for 24 hrs by annexin V-FITC/PI staining based flow cytometric analysis (reference value: 2.23 %). It is filed as functional.
Experiment [14] concerns Osimertinib-resistant NCI-H1975 cell. Put plainly: cells. The note with it: Homo sapiens, 96 h.
Description: Antiproliferative activity against human Osimertinib-resistant NCI-H1975 cell cultured as 3D spheroids assessed as inhibition of cell growth incubated for 96 hrs by CellTiter-Glo luminescence assay
Experiment [15] relates to NCI-H1299. Put plainly: Induction of apoptosis in human NCI-H1299 cells assessed as necrotic cells at 0.1 uM incubated for 24 hrs by annexin V-FITC/PI staining based flow cytometric analysis (reference value: 2.28 %). It is filed as functional.
The subject of experiment [16] is NCI-H1299. Put plainly: Induction of autophagy in human NCI-H1299 cells assessed as downregulation of p62 expression at 0.1 to 1 uM incubated for 48 hrs by Western blotting analysis. It is filed as functional, cell-based. The following applies: dose 0.1-1 µM.
Experiment [17] has as its system NCI-H1299. Put plainly: cells. The following applies: Homo sapiens, NCI-H1299, 48 h.
Description: Antiproliferative activity against human NCI-H1299 cells assessed as inhibition of cell growth incubated for 48 hrs by MTT assay

Calls of active or inactive are those of the source. The calls are words filed in the database; no cut-off is given here.

Chain of Dual specificity protein kinase CLK3 (P49761 whole entry): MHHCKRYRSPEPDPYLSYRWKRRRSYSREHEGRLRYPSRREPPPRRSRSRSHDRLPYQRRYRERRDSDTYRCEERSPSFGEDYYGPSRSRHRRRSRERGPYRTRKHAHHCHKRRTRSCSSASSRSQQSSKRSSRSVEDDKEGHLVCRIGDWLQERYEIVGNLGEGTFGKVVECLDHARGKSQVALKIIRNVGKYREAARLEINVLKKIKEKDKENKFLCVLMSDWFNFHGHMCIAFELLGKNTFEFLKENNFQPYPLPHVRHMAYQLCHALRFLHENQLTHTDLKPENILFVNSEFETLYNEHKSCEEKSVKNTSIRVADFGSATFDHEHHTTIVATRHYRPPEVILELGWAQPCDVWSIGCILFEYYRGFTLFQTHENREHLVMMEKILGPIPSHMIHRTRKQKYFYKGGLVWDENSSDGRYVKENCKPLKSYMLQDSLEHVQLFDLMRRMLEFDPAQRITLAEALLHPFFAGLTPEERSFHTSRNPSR
Chain of Dual specificity protein kinase CLK1 (P49759 whole entry, looked up): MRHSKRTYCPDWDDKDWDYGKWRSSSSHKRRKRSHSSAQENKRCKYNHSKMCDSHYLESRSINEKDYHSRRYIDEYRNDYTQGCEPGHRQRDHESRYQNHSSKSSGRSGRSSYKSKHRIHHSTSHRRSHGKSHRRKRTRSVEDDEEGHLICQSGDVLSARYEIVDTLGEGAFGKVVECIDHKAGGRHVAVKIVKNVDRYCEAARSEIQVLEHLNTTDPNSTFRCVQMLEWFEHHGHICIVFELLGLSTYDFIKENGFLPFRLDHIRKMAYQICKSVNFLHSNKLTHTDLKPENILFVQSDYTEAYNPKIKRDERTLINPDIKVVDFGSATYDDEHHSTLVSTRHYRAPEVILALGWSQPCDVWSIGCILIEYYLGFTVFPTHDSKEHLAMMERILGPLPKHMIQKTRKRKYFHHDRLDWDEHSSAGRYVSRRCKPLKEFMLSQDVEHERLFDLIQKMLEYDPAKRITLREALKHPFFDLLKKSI

With `FC1(F)CCN(Cc2cncc(-c3ccc4[nH]nc(-c5nc(-c6ccco6)c(-c6ccco6)[nH]5)c4c3)c2)C1`, the inhibition (in general, how much of the control response was suppressed) is “Active; Showed Stronger Inhibition Compared To Indazole 1” in [1] and 51.4% in experiment [2]. The IC50 (in general, the point on the concentration scale where inhibition reaches its midpoint) in experiment [3] is 7.3 nM; in [10], 28.7 nM; in experiment [12], 210 nM; in [14], 238 nM; in the experiment with NCI-H1299 [17], 130 nM. For the same compound, the Activity came to 6.71% with NCI-H1299 [4]; 8.27% with NCI-H1299 [5]; 0.74% with NCI-H1299 [6]; 3.57% in the experiment on NCI-H1299 [7]; 9.75% in the experiment on NCI-H1299 [9]; 9.7% in the experiment on NCI-H1299 [11]. Besides, the Activity turned out to be 5.23% with NCI-H1299 [13] and 1.1% in the experiment on NCI-H1299 [15]. The inhibition result in the experiment with NCI-H1299 [8] was “Active”. Besides, the result in the experiment on NCI-H1299 [16] was Active.
